Assay results: patent publication US20070142356A1, “Association of a sinus node If curent inhibitor and a calcium inhibitor, and pharmaceutical compositions containing it” (LES LABORATOIRES SERVIER, priority 2005, published 2007)

Tested on: patients being treated with dihydropyridine type calcium antagonists who still complained of painful angina pectoris attacks
Experiment: Clinical studies 019 and 021: angina attacks in patients on dihydropyridines given concomitant ivabradine
Format: in vivo
Conditions: for Change in the number of angina pectoris attacks, %: after 1 year of ivabradine versus inclusion; for Number of angina pectoris attacks (per week), after treatment: patients on dihydropyridines on inclusion, ivabradine for 1 year
Source text: Two clinical studies carried out in patients being treated with dihydropyridine type calcium antagonists who still complained of painful angina pectoris attacks (despite the calcium antagonist) have shown that concomitant treatment with ivabradine makes it possible to reduce these attacks very substantially (by about 60%).

SMILES: COc1cc2c(cc1OC)CC(=O)N(CCCN(C)C[C@H]1Cc3cc(OC)c(OC)cc31)CC2 [ivabradine, 3-{3-[{[(7S)-3,4-dimethoxy-bicyclo[4.2.0]octa-1,3,5-trien-7-yl]methyl}(methyl)amino]propyl}-7,8-dimethoxy-1,3,4,5-tetrahydro-2H-3-benzazepin-2-one]
- Change in the number of angina pectoris attacks, % (Study 019, n = 27): −61.4%
- Number of angina pectoris attacks (per week), after treatment (Study 019, n = 27): 0.7 ± 1.3 per week
- Change in the number of angina pectoris attacks, % (Study 021, n = 114): −58.9%
- Number of angina pectoris attacks (per week), after treatment (Study 021, n = 114): 0.9 ± 2.9 per week
- Reduction of painful angina pectoris attacks (two clinical studies, ivabradine concomitant with dihydropyridine calcium antagonist): about 60%
